Test results taken from US20230414657A1, “Novel compositions for neutralizing toxic effects of hydrogen peroxide in living cells or tissues” (Dzala LLC, priority 2020, published 2023).

What was measured:
[1] = system: C. elegans; test: Quantification of glutathione (GSH/GSSG-Glo); type: in vivo
Experimental: Sample preparation was performed as described previously with some modifications^6. From each condition 10,000 synchronized animals were harvested and washed 3 times with sterile water. […] To thoroughly lyse the worms, 5 cycles of freezing and thawing were performed in a water bath at 37° C., followed by a 1-min sonication. The samples were then centrifuged and the supernatant tested for protein estimation and GSH quantification. Total GSH, GSSG, and GSH/GSSG ratios were quantified using the GSH/GSSG-Glo assay kit (Promega) following the instructions of the manufacturer. Briefly, each sample was tested in triplicate in 96-well culture plates with total glutathione or GSSG lysis reagent, for total glutathione or GSSG measurement, respectively. The GSH probe, luciferin-NT, was converted to luciferin, which is coupled to a firefly luciferase. The plates were then read in an […] plate reader (Perkin Elmer, United States). The GSSG value was subtracted from the total glutathione to calculate GSH levels and GSH/GSSG ratio. Four biological replicates were analyzed for each condition.

[2] = system: gox-1, ghpr-1, gcst-1, mel-32 and gcs-1 genes; test: Quantitative real-time PCR of glycolate pathway genes; type: in vivo, C. elegans
Experimental: The differential expression of F41E6.5 (gox-1), C31C9.2 (ghpr-1), gcst-1, mel-32 and gcs-1 genes was measured using qRT-PCR. ˜5000 L1 N2 worms were exposed to each condition for 3 days at 15° Cas described above and then washed three times with H2O. Total RNA was isolated using the RNeasy Mini Kit (Qiagen) and equal amounts of all samples were reverse transcribed with SuperScript Ill (Invitrogen) using oligo(dT) 12-18 primers. cDNA quality was tested using standard PCR. qRT-PCR was performed using pre-designed TaqMan Gene Expression Assay (ThermoFischer Scientific) with at least three samples in triplicates. For the relative quantification of gene expression levels, the 2^−ΔΔCT method and results were normalized to the expression level of the cdc-42 gene. Expression levels were averaged over technical and biological replicates, […]

[3] = system: C. elegans; test: Growth rate / worm size; type: in vivo; conditions: H2O2 alone (100 mM)
Experimental: Synchronized L1 worms were incubated at 15° C. on plates or in liquid culture and exposed to different conditions as indicated. Single worms were selected randomly from the plates or aliquots were taken from the liquid cultures and added to NGM plates for immediate visualization. 25 worms per treatment were measured at 24-48 hr intervals and all growth curves were done four times.

[4] = system: C. elegans; test: Oxygen consumption rate (OCR), Seahorse XFe96; type: in vivo; conditions: H2O2 alone (100 mM)
Experimental: Oxygen consumption of worms was measured with a Seahorse XFe96 system (Seahorse Bioscience, North Billerica, MA), as previously described^4. L3 larvae of the different strains were grown on plates or in liquid culture and supplemented for 2-4 days as described for each experiment. After removing bacteria and debris, approximately 100 worms were pipetted into each well of a 96-well Seahorse XF^e assay plate and OCR was measured until it stabilized. Then, 3 subsequent measurements were made at 6.5-min intervals. Finally, the exact number of worms in each well was counted and used for normalization. A small number of abnormal readings were also filtered out at this stage. On average, 7-8 wells (technical replicates) were used for each condition. Normalized OCR values were averaged for the last 3 measurements for each strain and condition. Four biological replicates were analyzed for each condition.

[5] = system: C. elegans
Experimental: A population of synchronized L1 larvae was added to 30-ml glass tubes containing 2.5 ml of S-complete medium (liquid culture)^2 and NA22 or induced RNAi bacteria at an OD600 of 1.9. […] Worms were incubated at 15° C. and 150 rpm in a shaking incubator for 2-6 days, refreshing the medium every 2 days.
Briefly, for the treatment during larval development worms were incubated in liquid culture under different conditions from L1 until L4, and then transferred onto control NGM plates until death. During the reproductive period (days 1-8), worms were transferred to fresh plates every other day to separate them from their progeny. […] Worms that were missing, displaying internal egg hatching, losing vulva integrity, and burrowing into NGM agar were censored. Progeny number and embryonic lethality was determined the day after transferring the adult animals to fresh plates. Statistical analyses of lifespan were calculated by Log-rank (Mantel-Cox) tests on the Kaplan-Meier curves in GraphPad Prism. For progeny number and embryonic lethality, the significance of differences between conditions was determined using an unpaired t-test in GraphPadPrism 8.0. All experiments were performed in triplicate.

[6] = 0.25% hydrogen peroxide alone in drinking water
[7] = system: C. elegans; test: NADPH and NADP+ quantification by LC-MS; type: in vivo
Experimental: To measure NADP^+ and NADPH from C. elegans, 10000-15000 L1 worms were exposed to each condition in duplicates for 3 days and then washed four times with H2O. […] 25 µM solutions of each nucleotide were treated in parallel as standards. Homogenization for 15 min at 4° C. and 300 g was carried out in a TissueLyser II (Qiagen) after adding ⅓ volume of 0.5 mm zirconium beads. The resulting mixture was centrifuged at 13,000 g and the supernatant transferred to a new tube.
LC-MS/MS analysis of the samples was performed on a high-performance liquid chromatography (HPLC) system (1200 Agilent) coupled online to G2-S QTOF (Waters). For normal phase chromatography Bridge Amide 3.5 ml (2.1×100 mm) column from Waters was used. The mobile phase composed of eluent A and eluent B (40% acetonitrile, 0.1 mM ammonium acetate and 0.01% NH40H) was applied with the following gradient program: Eluent B, from 0% to 100% within 18 min; 100% from 18 min to 21 min; 0% from 21 min to 26 min. The flow rate was set at 0.3 ml/min. The spray voltage was set at 3.0 kV and the source temperature was set at 120° C. Nitrogen was used as both cone gas (50 L/h) and desolvation gas (800 L/h), and argon as the collision gas. MS^E mode was used with Bridge Amide 3.5 µl (2.1×100 mm) column in ESI negative ionization polarity for the detection of the nucleosides. Mass chromatograms and mass spectral data were acquired and processed by MassLynx software (Waters). Three and four biological replicates were analyzed for each condition of mel-32 RNAi and EV, respectively.

[8] = system: Staphylococcus aureus bacterial culture (ATCC 25923); test: Antimicrobial effect on bacterial culture, colony count; type: cell-based; conditions: 2.5% solution
Experimental: A composition comprising 0.5% Glycine and 0.3% Hydrogen peroxide was prepared on 0.9% sodium chloride solution. Water was sterile purified.
After incubation for 4-5 minutes, sample from each test tube was diluted 1000 times with sterile water, and […] was spread evenly on standard tryptic soy agar petri plate. Plates were incubated at 37° C. for 24 hours and bacterial colonies were counted. As a positive control (100% survival), was taken a sample, where the composition was neutralized by sodium bisulfite instantly (FIG. 10).

Row | SMILES | Oxidized form of glutathione (GSSG) ([1]; H2O2 alone (100 mM)) | Total glutathione ([1]; H2O2 alone (100 mM), 3 days) | GSH/GSSG ratio ([1]; H2O2 alone, control 107.5) | Reduction of GSH/GSSG ratio ([1]; peroxide alone vs control) | Expression of gcst-1 ([2]; peroxide or glycolate supplementation) | Expression of gox-1, ghpr-1, mel-32 and gcs-1 ([2]; worms exposed to different peroxide concentrations, 3 days) | Growth [3] | Respiration rate (OCR) [4] | Reproductive capacity ([5]; H2O2 alone) | Lifespan ([5]; exposed to H2O2 alone during larval stages, then control plates, control worms 18.5+/−1.19 days) [days] | Effect on weight [6] | Ratio of NADPH to NADP+ ([7]; H2O2 alone (100 mM), 3 days) | Ratio of NADPH to NADP+ ([7]; mel-32 knocked down worms, H2O2 alone) | Antimicrobial effect of the neutralizer on itself [8]
1 | OO [H2O2, hydrogen peroxide] | 513 % of the control | 51 % of the control | 11.3 | 10 -fold | not significantly altered | significant induction | growth delay | decline in the respiration rate | reduced reproductive capacity | 5.88 ± 1.47 | slight positive effect | significantly decreased | further decline | 
2 | O=S([O-])O.[Na+] [sodium bisulfite] |  |  |  |  |  |  |  |  |  |  |  |  |  | no antimicrobial effect
